Publication PMC8770593 (Nature Communications, 2022)
Where “and” joins values, the source holds several entries; their conditions need not be identical. Equal values may be shown once. Read-outs that look alike come from different tables or passages of the source.

Columns and labels:
wild-type α2CAR = target: T1, wild-type α2CAR (Homo sapiens, UniProt P18825); assay: HTRF ligand-binding assay on whole transfected HEK293T/17 cells (QAPB saturation; competition with QAPB tracer); details: pKi (competition binding), competition with 50 nM QAPB tracer, whole cells, mean
T1 sequence (P18825 37-462 limits assumed): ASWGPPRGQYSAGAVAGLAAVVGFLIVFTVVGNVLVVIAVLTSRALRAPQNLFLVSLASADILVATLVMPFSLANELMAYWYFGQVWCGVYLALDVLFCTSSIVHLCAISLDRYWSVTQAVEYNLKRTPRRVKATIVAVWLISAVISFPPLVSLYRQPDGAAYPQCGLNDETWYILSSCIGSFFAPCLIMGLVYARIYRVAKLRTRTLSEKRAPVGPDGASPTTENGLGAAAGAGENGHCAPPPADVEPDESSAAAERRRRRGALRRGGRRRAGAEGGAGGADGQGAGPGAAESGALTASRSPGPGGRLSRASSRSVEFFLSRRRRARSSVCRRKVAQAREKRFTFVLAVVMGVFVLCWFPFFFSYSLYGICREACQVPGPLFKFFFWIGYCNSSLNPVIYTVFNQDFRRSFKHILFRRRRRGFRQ

[1] = target: T2, α1BAR-α2C(L^45.52) chimera (V197^45.52→L) (Homo sapiens, UniProt P35368, V197L); assay: as above
T2 sequence (P35368 35-520 V197L): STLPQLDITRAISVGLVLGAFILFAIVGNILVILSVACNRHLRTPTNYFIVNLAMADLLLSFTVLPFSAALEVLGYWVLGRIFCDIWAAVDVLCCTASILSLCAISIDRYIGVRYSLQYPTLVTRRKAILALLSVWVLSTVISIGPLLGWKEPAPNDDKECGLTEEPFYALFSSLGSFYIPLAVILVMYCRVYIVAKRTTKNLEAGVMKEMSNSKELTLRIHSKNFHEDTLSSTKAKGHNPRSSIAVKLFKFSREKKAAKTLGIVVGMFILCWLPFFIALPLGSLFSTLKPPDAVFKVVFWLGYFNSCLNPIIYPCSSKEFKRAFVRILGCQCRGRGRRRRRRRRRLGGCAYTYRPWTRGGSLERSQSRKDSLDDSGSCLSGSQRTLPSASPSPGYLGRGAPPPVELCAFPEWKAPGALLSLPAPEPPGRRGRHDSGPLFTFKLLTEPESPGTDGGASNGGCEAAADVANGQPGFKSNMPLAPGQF

α1BARXTAL = target: T3, α1BARXTAL (Homo sapiens, UniProt P35368, D191Y/DEL249-283/E194V/F334L/G183V/I116T/P349L/S150Y/S168C/S95C/T295M/V124M/V333L); assay: CPM-based thermostability assay of ligand-bound receptor; details: cyclazosin-bound α1BARXTAL
T3 construct: deletion of N-terminal residues M1–N34 and intracellular loop three (ICL3) residues K249–L283, and fusion of DARPin D12[43],[68],[69] to residue C350^7.55; MBP (N, cleaved yes); His6-tag (N, cleaved yes); DARPin D12, modified (ΔS1,D2); L3K, G4A, K5R, A13K; thioredoxin A (TrxA) (C, cleaved yes); His10-tag (C, cleaved yes); made in house; host or cells: E. coli BL21 (fhuA2 deletion)

[2] = system: α1BAR expressed in mammalian cells; details: radioligand binding; ref Proudman, R. G. W., et al., Pharmacol. Res. Perspect. 8 (2020); cited from earlier work
[3] = target: α1BARXTAL-ΔD12 (stabilized α1BAR without DARPin D12) (Homo sapiens, UniProt P35368, D191Y/DEL249-283/E194V/F334L/G183V/I116T/P349L/S150Y/S168C/S95C/T295M/V124M/V333L); assay: HTRF competition ligand-binding assay on whole transfected HEK293T/17 cells (QAPB tracer); details: construct α1BARXTAL-∆D12, competition with Cyclazosin against QAPB tracer, one value per experiment date, read-out: Calculated pKi values (converted)
[4] = target: rat cerebral cortex tissue containing all three α2AR subtypes; set-up: method as in Giardinà, D. et al., J. Med. Chem. 39, 4602-4607 (1996); details: ref Giardinà, D. et al., J. Med. Chem. 39, 4602-4607 (1996); cited from earlier work
[5] = target: α1BAR-α2C(YLLY;N^2.64) chimera (Homo sapiens, UniProt P35368, A122L/L105N/L314Y/V197L/W121Y); assay: HTRF ligand-binding assay on whole transfected HEK293T/17 cells (QAPB saturation; competition with QAPB tracer)
[6] = target: T4, α1BARXTAL (stabilized α1BAR with DARPin D12 fusion) (Homo sapiens, UniProt P35368, D191Y/E194V/F334L/G183V/I116T/P349L/S150Y/S168C/S95C/T295M/V124M/V333L); assay: HTRF competition ligand-binding assay on whole transfected HEK293T/17 cells (QAPB tracer)
T4 construct: deletion of N-terminal residues M1–N34 and intracellular loop three (ICL3) residues K249–L283, and fusion of DARPin D12[43],[68],[69] to residue C350^7.55; expressed in transfected cells; host or cells: HEK293T/17

[7] = target: α1BAR-α2C(YLLY;ECL2) chimera (Homo sapiens, UniProt P35368, A122L/DEL188-193/E186Y/E194Q/E199D/F202W/G179P/I178F/INS181VSLYRQP/K185A/L182D/L314Y/P201T/T198N/V197L/W121Y/W184A); assay: HTRF ligand-binding assay on whole transfected HEK293T/17 cells (QAPB saturation; competition with QAPB tracer)
Sequence of α1BAR-α2C(YLLY;ECL2) chimera (P35368 with tags, fused parts or gaps with the stated changes): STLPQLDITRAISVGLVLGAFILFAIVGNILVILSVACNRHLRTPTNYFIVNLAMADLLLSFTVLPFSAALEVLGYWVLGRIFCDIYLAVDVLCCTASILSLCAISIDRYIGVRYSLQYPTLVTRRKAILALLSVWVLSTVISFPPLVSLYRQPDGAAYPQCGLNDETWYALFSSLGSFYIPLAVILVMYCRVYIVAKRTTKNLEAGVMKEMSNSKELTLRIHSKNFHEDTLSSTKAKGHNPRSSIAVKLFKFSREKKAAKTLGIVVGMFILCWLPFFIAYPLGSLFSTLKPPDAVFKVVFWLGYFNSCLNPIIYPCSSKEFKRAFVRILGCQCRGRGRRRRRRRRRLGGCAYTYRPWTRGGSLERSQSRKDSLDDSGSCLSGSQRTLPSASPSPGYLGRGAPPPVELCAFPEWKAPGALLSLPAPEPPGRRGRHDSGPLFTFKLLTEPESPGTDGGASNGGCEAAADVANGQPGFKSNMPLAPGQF

T4 sequence (P35368 with tags, fused parts or gaps with the stated changes): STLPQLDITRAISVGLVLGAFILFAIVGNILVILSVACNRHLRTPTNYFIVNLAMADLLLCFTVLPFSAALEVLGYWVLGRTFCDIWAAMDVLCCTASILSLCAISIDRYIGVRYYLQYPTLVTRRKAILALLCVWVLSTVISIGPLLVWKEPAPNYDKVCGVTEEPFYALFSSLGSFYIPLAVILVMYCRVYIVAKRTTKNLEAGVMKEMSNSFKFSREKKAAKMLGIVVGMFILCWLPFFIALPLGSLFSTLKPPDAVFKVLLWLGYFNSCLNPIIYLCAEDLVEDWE
Sequence of α1BARXTAL-ΔD12 (stabilized α1BAR without DARPin D12) (P35368 with tags, fused parts or gaps with the stated changes): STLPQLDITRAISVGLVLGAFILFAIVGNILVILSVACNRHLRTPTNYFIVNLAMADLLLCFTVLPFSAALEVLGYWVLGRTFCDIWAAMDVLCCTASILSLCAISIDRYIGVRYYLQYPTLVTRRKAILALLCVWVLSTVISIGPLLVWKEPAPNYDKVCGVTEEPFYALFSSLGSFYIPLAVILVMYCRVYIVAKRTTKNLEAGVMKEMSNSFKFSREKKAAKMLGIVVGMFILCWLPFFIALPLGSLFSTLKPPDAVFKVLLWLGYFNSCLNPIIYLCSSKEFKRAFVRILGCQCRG
T3 sequence (P35368 with tags, fused parts or gaps with the stated changes): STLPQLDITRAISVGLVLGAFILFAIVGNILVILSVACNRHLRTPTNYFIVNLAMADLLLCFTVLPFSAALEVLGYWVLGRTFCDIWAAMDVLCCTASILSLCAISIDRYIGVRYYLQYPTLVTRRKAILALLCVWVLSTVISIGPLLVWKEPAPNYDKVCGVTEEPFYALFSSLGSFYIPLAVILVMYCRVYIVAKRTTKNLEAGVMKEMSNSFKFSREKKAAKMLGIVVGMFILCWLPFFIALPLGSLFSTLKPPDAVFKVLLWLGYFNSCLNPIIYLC
Sequence of α1BAR-α2C(YLLY;N^2.64) chimera (P35368 35-520 L105N/W121Y/A122L/V197L/L314Y): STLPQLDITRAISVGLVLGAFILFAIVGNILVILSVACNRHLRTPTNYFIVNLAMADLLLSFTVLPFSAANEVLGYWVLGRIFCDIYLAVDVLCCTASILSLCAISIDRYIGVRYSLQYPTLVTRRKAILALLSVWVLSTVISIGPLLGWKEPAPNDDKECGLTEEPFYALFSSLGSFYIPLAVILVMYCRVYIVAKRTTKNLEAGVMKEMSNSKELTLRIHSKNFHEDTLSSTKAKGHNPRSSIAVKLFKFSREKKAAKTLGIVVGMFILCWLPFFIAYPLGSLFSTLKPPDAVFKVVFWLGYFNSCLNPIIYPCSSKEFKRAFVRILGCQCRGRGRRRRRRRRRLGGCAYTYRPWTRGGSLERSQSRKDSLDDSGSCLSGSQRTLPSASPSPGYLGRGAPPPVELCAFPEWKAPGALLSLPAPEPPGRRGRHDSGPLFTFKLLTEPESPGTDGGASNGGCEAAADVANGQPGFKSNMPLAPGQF

COc1cc2nc(N3CCN(C(=O)c4ccco4)[C@H]4CCCC[C@H]43)nc(N)c2cc1OC (relative stereo) [cyclazosin, [4-(4-amino-6,7-dimethoxyquinazolin-2-yl)-cis-octahydroquinoxalin-1-yl] furan-2-ylmethanone]
Ki (wild-type α2CAR): 339 nM | effect of the substitution on affinity ([1]; V197^45.52→L vs wild-type α1BAR): negligible | Ki ([1]; pKi (competition binding), competition with 2 nM QAPB tracer, whole cells, mean): 1.1 nM | apparent Tm of the ligand-bound receptor (α1BARXTAL): ≈ 71 °C | affinity as pK value (RLBA) [2]: 8.68 | Ki [3]: 9.9 nM and 6.69 nM and 2.8 nM | affinity as pK value (RLBA) [4]: 6.17 | Ki [5]: 7.24 nM | Ki ([6]; competition with 2 nM QAPB tracer, whole cells, read-out: Ki): 6.17 nM | Ki ([6]; construct α1BARXTAL, competition with Cyclazosin against QAPB tracer, HTRF, one value per experiment date, read-out: Calculated pKi values (converted)): 11 nM and 3.94 nM and 5.44 nM | Ki [7]: 2.69 nM
